Source: US9663494B2, “Inhibitors of bruton's tyrosine kinase” (Hoffmann-La Roche Inc., priority 2013, dated 2017)

Molecular target: Bruton's Tyrosine Kinase (BTK), inactivated state (Homo sapiens (Human), UniProt Q06187)
Experiment: Bruton's Tyrosine Kinase (BTK) Inhibition TR-FRET (Time Resolved FRET) competition assay
Format: binding
Conditions: BTK-Eu / Kinase Tracer 178 competition, incubated 18-24 h at 14° C.
Experimental: 10) Add 50 μL microscint-20 and count ^33P cpm on scintillation counter. • Calculate percent activity from raw data in cpm percent activity=(sample−bkg)/(total activity−bkg)×100 • Calculate IC50 from percent activity, using one-site dose response sigmoidal model y=A+((B−A)/(1+((x/C)^D)))) • x=cmpd conc, y=% activity, A=min, B=max, C=IC50, D=1 (hill slope) Bruton's Tyrosine Kinase (BTK) Inhibition TR-FRET (Time Resolved FRET) Assay
This BTK competition assay measures compound potency (IC50) for the inactivated state of Bruton's Tyrosine Kinase using FRET (Förster/Flouresence Resonance Energy Transfer) technology. The BTK-Eu complex was incubated on ice one hour prior to use at a starting concentration of 50 nM BTK-Bioease™: 10 nM Eu-streptavidin (Perkin-Elmer Catalog# AD0062). The assay buffer consisted of 20 mM HEPES (pH 7.15), 0.1 mM DTT, 10 mM MgCl2, 0.5 mg/ml BSA with 3% Kinase Stabilizer (Fremont Biosolutions, Catalog # STB-K02). After 1 h, the reaction mixture from above was diluted 10 fold in assay buffer to make 5 nM BTK: 1 nM Eu-Streptavidin complex (donor fluorophore). 18 μl of a mixture of 0.11 nM BTK-Eu and 0.11 nM Kinase Tracer 178 (Invitrogen, Catalog # PV5593) with BTK-Eu alone as no negative control, was then dispensed into 384-well flat bottom plates (Greiner, 784076). Compounds to be tested in assay were prepared as 10× concentrations and serial dilution in half-log increments was performed in DMSO so as to generate 10 point curves. To initiate the FRET reaction, compounds prepared as 10× stock in DMSO was added to the plates and the plates were incubated 18-24 h at 14° C.

Sequence of Bruton's Tyrosine Kinase (BTK), inactivated state (Q06187 whole entry): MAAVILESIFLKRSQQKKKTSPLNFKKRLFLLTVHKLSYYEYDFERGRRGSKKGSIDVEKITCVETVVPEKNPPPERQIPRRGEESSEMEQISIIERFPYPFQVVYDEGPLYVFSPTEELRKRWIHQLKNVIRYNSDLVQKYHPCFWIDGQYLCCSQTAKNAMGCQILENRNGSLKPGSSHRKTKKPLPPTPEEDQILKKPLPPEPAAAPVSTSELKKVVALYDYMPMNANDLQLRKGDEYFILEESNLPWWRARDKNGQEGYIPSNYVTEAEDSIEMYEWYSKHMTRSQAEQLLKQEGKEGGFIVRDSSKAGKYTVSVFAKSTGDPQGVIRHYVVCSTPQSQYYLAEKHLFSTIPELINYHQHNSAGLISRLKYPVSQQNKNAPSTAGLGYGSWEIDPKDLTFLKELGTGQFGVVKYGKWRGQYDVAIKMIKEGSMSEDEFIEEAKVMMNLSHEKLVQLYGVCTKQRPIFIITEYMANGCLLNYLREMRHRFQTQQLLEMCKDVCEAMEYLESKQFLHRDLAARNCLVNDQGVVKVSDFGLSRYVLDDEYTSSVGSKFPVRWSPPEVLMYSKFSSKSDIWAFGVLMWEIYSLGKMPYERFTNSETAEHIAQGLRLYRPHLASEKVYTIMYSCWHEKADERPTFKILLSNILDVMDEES

| IC50 [nM] | Structure (SMILES) |
| --- | --- |
| 11.2 | Cn1nc(-c2cccc(N3CCc4cc(C(C)(C)C#N)ccc4C3=O)c2CO)cc(Nc2ccc(C(=O)N3CCOCC3)cn2)c1=O [Compound 1, 2-[2-[2-(hydroxymethyl)-3-[1-methyl-5-[[5-(morpholine-4-carbonyl)pyridin-2-yl]amino]-6-oxopyridazin-3-yl]phenyl]-1-oxo-3,4-dihydroisoquinolin-6-yl]-2-methylpropanenitrile] |
| 1.12 | Cn1nc(-c2cccc(-n3ccc4cc(C(C)(C)C#N)cc(F)c4c3=O)c2CO)cc(Nc2ccc(OC(C)(C)CO)cn2)c1=O [Compound 2, 2-[8-fluoro-2-[2-(hydroxymethyl)-3-[5-[[5-(1-hydroxy-2-methylpropan-2-yl)oxypyridin-2-yl]amino]-1-methyl-6-oxopyridazin-3-yl]phenyl]-1-oxoisoquinolin-6-yl]-2-methylpropanenitrile] |
| 52.6 | Cn1nc(-c2cccc(N3CCOc4cc(C(C)(C)CO)ccc4C3=O)c2CO)cc(Nc2ccc(S(C)(=O)=O)cn2)c1=O [Compound 3, 4-[2-(hydroxymethyl)-3-[1-methyl-5-[(5-methylsulfonylpyridin-2-yl)amino]-6-oxopyridazin-3-yl]phenyl]-8-(1-hydroxy-2-methylpropan-2-yl)-2,3-dihydro-1,4-benzoxazepin-5-one] |
| 31.9 | Cn1cc(-c2cccc(NC(=O)N3Cc4ccc(Cl)cc4C3)c2CO)cc(Nc2ccc(C(=O)N3CCOCC3)cn2)c1=O [Compound 4, 5-chloro-N-[2-(hydroxymethyl)-3-[1-methyl-5-[[5-(morpholine-4-carbonyl)pyridin-2-yl]amino]-6-oxopyridin-3-yl]phenyl]-1,3-dihydroisoindole-2-carboxamide] |
| 13.7 | Cn1cc(-c2cccc(N3CCc4cc(C(C)(C)C)ncc4C3=O)c2CO)cc(Nc2ccc(C(=O)N3CCOCC3)cn2)c1=O [Compound 5, 6-tert-butyl-2-[2-(hydroxymethyl)-3-[1-methyl-5-[[5-(morpholine-4-carbonyl)pyridin-2-yl]amino]-6-oxopyridin-3-yl]phenyl]-3,4-dihydro-2,7-naphthyridin-1-one] |
| 14.6 | Cn1nc(-c2cccc(N3CCc4cc(C(C)(C)C)ncc4C3=O)c2CO)cc(Nc2ccc(C(=O)N3CCOCC3)cn2)c1=O [Compound 6, 6-tert-butyl-2-[2-(hydroxymethyl)-3-[1-methyl-5-[[5-(morpholine-4-carbonyl)pyridin-2-yl]amino]-6-oxopyridazin-3-yl]phenyl]-3,4-dihydro-2,7-naphthyridin-1-one] |
| 6.5 | Cc1c(-c2cc(Nc3ccc(C(=O)N4CCOCC4)cn3)c(=O)n(C)n2)cccc1-n1ncc2cc(C(C)(C)C)cc(F)c2c1=O [Compound 7, 6-tert-butyl-8-fluoro-2-[2-methyl-3-[1-methyl-5-[[5-(morpholine-4-carbonyl)pyridin-2-yl]amino]-6-oxopyridazin-3-yl]phenyl]phthalazin-1-one] |
| 1.77 | Cn1nc(-c2cccc(N3CCOc4cc(C(C)(C)C)ccc4C3=O)c2CO)cc(Nc2ccc(C(=O)N3CCOCC3)cn2)c1=O [Compound 8, 8-tert-butyl-4-[2-(hydroxymethyl)-3-[1-methyl-5-[[5-(morpholine-4-carbonyl)pyridin-2-yl]amino]-6-oxopyridazin-3-yl]phenyl]-2,3-dihydro-1,4-benzoxazepin-5-one] |
| 4.24 | Cn1nc(-c2cccc(N3CCOc4cc(C(C)(C)C)ccc4C3=O)c2CO)cc(Nc2ccc(S(C)(=O)=O)cn2)c1=O [Compound 9, 8-tert-butyl-4-[2-(hydroxymethyl)-3-[1-methyl-5-[(5-methylsulfonylpyridin-2-yl)amino]-6-oxopyridazin-3-yl]phenyl]-2,3-dihydro-1,4-benzoxazepin-5-one] |
